Experimental data as given in the NIST ThermoML archive (doi:10.1016/j.tca.2009.12.001).

Columns and labels:
[1] = wn = mass fraction of the nth substance listed; details: 101 kPa, Liquid; for viscosity: Capillary tube (Ostwald / Ubbelohde) method; for speed of sound: Linear variable-path acoustic interferometer; for mass density: Pycnometric method
[2] = refractive index (Na D-line) (dimensionless); wn = mass fraction of the nth substance listed; details: 303.15 K, 101 kPa, Liquid, Standard Abbe refractometry
[3] = 101 kPa, Liquid; for viscosity: Capillary tube (Ostwald / Ubbelohde) method; for mass density: Pycnometric method
[4] = refractive index (Na D-line) (dimensionless); details: 303.15 K; 101.33 kPa; Liquid; Standard Abbe refractometry
[5] = cn = amount concentration of the nth substance listed, in mol/dm3; details: 101 kPa, Liquid; for viscosity: Capillary tube (Ostwald / Ubbelohde) method; for mass density: Pycnometric method
[6] = refractive index (Na D-line) (dimensionless); mn = molality of the nth substance listed, in mol/kg; details: 303.15 K, 101 kPa, Liquid, Standard Abbe refractometry
[7] = mn = molality of the nth substance listed, in mol/kg; details: 303.15 K, 101 kPa, Liquid, Linear variable-path acoustic interferometer

COC(=O)c1ccccc1O [methyl 2-hydroxybenzoate] + CC(C)O
[1]
Details | mass density, 303.15 K [kg/m3] | mass density, 313.15 K [kg/m3] | mass density, 323.15 K [kg/m3] | speed of sound, 303.15 K [m/s] | viscosity, 303.15 K [mPa·s] | viscosity, 313.15 K [mPa·s] | viscosity, 323.15 K [mPa·s]
w1 = 0.05 | 790.9 | 782.8 | 770.3 | 1146.8 | 1.798 | 1.379 | 1.048
w1 = 0.1 | 805.3 | 794.3 | 785.1 | 1170.6 | 1.846 | 1.437 | 1.103
w1 = 0.15 | 822.4 | 812 | 799.3 | 1197.7 | 1.961 | 1.56 | 1.227

[2]
Details | refractive index
w1 = 0.05 | 1.3791
w1 = 0.1 | 1.3852
w1 = 0.15 | 1.3912

CC(C)O [propan-2-ol] + COC(=O)c1ccccc1O
[1], w2 = 0
Details | mass density [kg/m3] | speed of sound [m/s] | viscosity [mPa·s]
303.15 K | 777.1 | 1130.6 | 1.747
313.15 K | 768.4 | – | 1.33
323.15 K | 756 | – | 1.003

Details | refractive index
[2], w2 = 0 | 1.3736

CC(C)O [propan-2-ol]
[3]
Details | mass density [kg/m3] | viscosity [mPa·s]
303.15 K | 777.1 | 1.747
313.15 K | 768.4 | 1.33
323.15 K | 756 | 1.003

Details | speed of sound [m/s]
[3], 303.15 K, Linear variable-path acoustic interferometer | 1130.6

Details | refractive index
[4] | 1.3736

CC(C)[C@@H]1CC[C@@H](C)C[C@H]1O [DL-menthol] + CC(C)O
[5]
Details | mass density [kg/m3] | viscosity [mPa·s]
303.15 K, c1 = 0.025 | 777.6 | 1.757
303.15 K, c1 = 0.035 | 777.8 | 1.761
303.15 K, c1 = 0.045 | 778 | 1.766
303.15 K, c1 = 0.055 | 778.3 | 1.771
303.15 K, c1 = 0.075 | 778.8 | 1.781
303.15 K, c1 = 0.085 | 779.1 | 1.785
313.15 K, c1 = 0.0247 | 768.8 | 1.34
313.15 K, c1 = 0.0346 | 769 | 1.344
313.15 K, c1 = 0.0445 | 769.2 | 1.349
313.15 K, c1 = 0.0544 | 769.5 | 1.355
313.15 K, c1 = 0.0742 | 770 | 1.364
313.15 K, c1 = 0.084 | 770.3 | 1.368
323.15 K, c1 = 0.0243 | 756.4 | 1.012
323.15 K, c1 = 0.034 | 756.6 | 1.017
323.15 K, c1 = 0.0438 | 756.8 | 1.022
323.15 K, c1 = 0.0535 | 757.1 | 1.026
323.15 K, c1 = 0.073 | 757.7 | 1.034
323.15 K, c1 = 0.0827 | 758 | 1.039

Details | refractive index, [6] | speed of sound, [7] [m/s]
m1 = 0.0323 | 1.3741 | 1135.7
m1 = 0.0453 | 1.3744 | 1138.2
m1 = 0.0584 | 1.3747 | 1141.2
m1 = 0.0715 | 1.375 | 1144.4
m1 = 0.0978 | 1.3755 | 1151.1
m1 = 0.111 | 1.3757 | 1154.2
